Where a name gives a salt, the structure may show the parent alone.
Columns and labels:
[1] = target: T1, human FAAH (Fatty Acid Amide Hydrolase) (Homo sapiens, UniProt O00519); assay: FAAH enzyme assay on lysate of CHO cells expressing human FAAH; format: biochemical
T1 construct: The full length FAAH was subcloned into the mammalian expression vector, pcDEF.neo
T1 sequence (O00519 1-579): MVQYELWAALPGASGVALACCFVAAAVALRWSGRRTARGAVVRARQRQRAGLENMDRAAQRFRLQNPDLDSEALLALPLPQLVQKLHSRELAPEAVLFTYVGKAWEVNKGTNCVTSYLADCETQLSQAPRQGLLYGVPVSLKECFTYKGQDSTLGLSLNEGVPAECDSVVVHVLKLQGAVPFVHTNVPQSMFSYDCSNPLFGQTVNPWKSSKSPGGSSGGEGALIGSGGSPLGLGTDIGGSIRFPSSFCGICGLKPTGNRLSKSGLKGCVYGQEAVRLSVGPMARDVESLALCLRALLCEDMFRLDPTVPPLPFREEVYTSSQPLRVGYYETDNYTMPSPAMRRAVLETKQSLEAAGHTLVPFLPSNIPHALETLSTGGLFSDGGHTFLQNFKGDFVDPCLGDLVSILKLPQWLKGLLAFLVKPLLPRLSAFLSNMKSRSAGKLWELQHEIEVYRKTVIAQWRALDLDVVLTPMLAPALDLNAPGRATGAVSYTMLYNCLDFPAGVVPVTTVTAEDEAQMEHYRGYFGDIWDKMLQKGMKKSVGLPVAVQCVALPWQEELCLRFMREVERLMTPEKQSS
From the text: (§1) To assist in assay development stable cell lines for human, murine and rat full length FAAH were developed. Human FAAH cDNA (Accession No: NM_001441.1) was purchased from Origene (Rockville, Md.). The full length FAAH was subcloned into the mammalian expression vector, pcDEF.neo, using XbaI and EcoRI restriction sites and used for stable cell line generation.
CHO cells expressing FAAH were used to prepare either crude cell lysate or microsome fractions. To harvest cells, tissue culture media was decanted, the monolayer washed three times with Ca^++Mg^++ free PBS and cells recovered after […] in enzyme free dissociation media (Millipore Corp, Billerica, Mass.). Cells were collected by centrifuging at 2000 rpm for 15 min. and the cell pellet re-suspended with 50 mM HEPES (pH 7.4) containing 1 mM EDTA and the protease inhibitors aprotinin (1 mg/ml) and leupeptin (100 μM). The suspension was sonicated at 4° C. and the cell lysate recovered after centrifuging at 12,000×g (14,600 rpm, SS34 rotor) for 20 min at 4° C. to form a crude pellet of cell debris, nuclei, peroxisomes, lysosomes, and mitochondria; the supernatant or cell lysate was used for FAAH enzyme assay. In some cases, microsomes fractions enriched in FAAH were prepared by centrifuging the cell lysate further at 27,000 rpm (100,000×g) in SW28 rotor for 50 minutes at 4° C. The pellet containing FAAH-enriched microsomes was re-suspend in 50 mM HEPES, (pH 7.4) 1 mM EDTA, and any remaining DNA sheared by passage of material through a 23 gauge needle and aliquots of enzyme were store at −80° C. prior to use.
(§2) (American Radiolabeled Chemicals; 1 mCi/ml) with FAAH (Life Sciences (1995), 56, 1999-2005 and Journal of Pharmacology and Experimented Therapeutics (1997), 283, 729-734), Analytical. Biochemistry (2003), 318, 270-5. In addition, routine assays were performed monitoring hydrolysis of arachidonyl-7-amino-4-methylcoumarin amide (AAMCA) by following increase in fluorescence upon release of 7-amino 4-methyl coumarin (λEX=355 nm, (λEM=460 nm). Analytical. Biochemistry (2005). 343, 143-51
(§3) Assays are performed on either cell lysate or microsome fractions prepared as described or in whole cell format employing either the fluorescent substrate AAMCA (Cayman chemical, Ann Arbor, Mich.,) or ^3H-anandmaide ([ETHANOLAMINE-1-3H]American Radiolabeled Chemicals; 1 mCi/ml). The cell lysate or microsome assay is performed in Costar black wall, clear bottom plates by adding FAAH_CF10 (whole cell, cell lysate or microsome) in assay buffer (50 mM Phosphate, pH 8.0, 1 mM EDTA, 200 mM KCl, 0.2% glycerol, 0.1% fatty acid free BSA) to each well, followed by either DMSO or compound and allowed to incubate at 22-25° C. for fifteen minutes. AAMCA substrate was used to achieve a final concentration of 1 μM and reaction allowed to proceed at room temperature for 1-3 hours. Fluorescent release as a measure of FAAH activity was monitored by reading the plate in a CytoFluor Multiplate Reader (Ex: […]). Whole cell assay is conducted with cells harvested after rinsing tissue culture flasks three times with Ca^++Mg^++ free PBS, incubating for 10 min in Enzyme free dissociation media and centrifuging for 5 minutes at 1,000 rpm in table top centrifuge. Cells are resuspended in assay buffer at desired cell number in (4×10^4 cells/assay in 96-well format; 1×10^4 cells/assay in 384-well format) and assayed as described.
Alternatively, assays are performed using anandamide [ethanolamine 1-^3H] (specific activity of 10 Ci/mmol) diluted with cold anandamide to achieve a final assay concentration of 1 μM anandamide (˜50,000 cpm). Enzyme (CHO cell lysate, brain or liver homogenate) is incubated in assay buffer (50 mM Phosphate, pH 8.0, 1 mM EDTA, 200 mM KCl, 0.2% glycerol, 0.1% fatty acid free BSA) with inhibitor at 25° C. for 30 minutes. The reaction was terminated by addition of 2 volumes of chloroform:methanol (1:1) and mixed by vortexing. […]

[2] = target: T1, human FAAH (Fatty Acid Amide Hydrolase); assay: FAAH whole cell assay, CHO cells expressing human FAAH; format: cell-based
From the text: as §1
(§4) Murine (accession number NM_010173) and Rat FAAH (accession number NM_024132) was amplified by reverse transcriptase polymerase chain reaction (RT-PCR) from brain cDNA (BD Biosciences, San Jose, Calif.) using primers 1 and 2 or primers 1 and 3 respectively (see Table). The resulting PCR product was ligated into pCR4 TOPO and DNA sequence confirmed. The full length murine FAAH was subcloned into the mammalian expression vector, pcDEFneo using either EcoRI (murine) or KpnI and EcoRI (rat) restriction sites. Chinese hamster ovary cells (CHO) were transfected following manufacturers protocol (AMAXA). Forty eight hours post transfection, cells were trypsinized and transferred to 96 well plates in Iscove's DMEM media supplemented with 2 mM Glutamine, 10% fetal calf serum, 1 mg/ml geneticin and HT Supplement (0.1 mM sodium hypoxanthine, 0.016 mM thymidine) in order to isolate single clones. Following selection in geneticin, individual clones were selected and FAAH activity was assessed using a whole cell fluorescent anandamide assay, modified from Ramarao et al (2005). Following removal of tissue culture media cells were dislodged following addition of Cellstripper (Mediatech, Inc. Manassas, Va.) and transferred to 96 well black clear bottom assay plate, centrifuged at 1,000 rpm for 3 mins and media removed and replaced with assay buffer (50 mM Iris pH8.0, 1 mM EDTA, 0.1% fatty acid free BSA). The reaction was initiated by addition of fluorescent substrate, AMC Arachidonoyl Amide (Cayman Chemical, Ann Arbor, Mich.) to 1 μM and reaction allowed to proceed for 2 hours at room temperature. Release of fluorescence was monitored in a CytoFluor Multiplate Reader. Cells expressing the highest amount of FAAH activity were selected for study with FAAH inhibitors.
as §2, §3

[3] = target: T2, rat FAAH (Fatty Acid Amide Hydrolase) (Rattus norvegicus, UniProt P97612); assay: FAAH whole cell assay, CHO cells expressing rat FAAH; format: cell-based
T2 sequence (P97612 1-579): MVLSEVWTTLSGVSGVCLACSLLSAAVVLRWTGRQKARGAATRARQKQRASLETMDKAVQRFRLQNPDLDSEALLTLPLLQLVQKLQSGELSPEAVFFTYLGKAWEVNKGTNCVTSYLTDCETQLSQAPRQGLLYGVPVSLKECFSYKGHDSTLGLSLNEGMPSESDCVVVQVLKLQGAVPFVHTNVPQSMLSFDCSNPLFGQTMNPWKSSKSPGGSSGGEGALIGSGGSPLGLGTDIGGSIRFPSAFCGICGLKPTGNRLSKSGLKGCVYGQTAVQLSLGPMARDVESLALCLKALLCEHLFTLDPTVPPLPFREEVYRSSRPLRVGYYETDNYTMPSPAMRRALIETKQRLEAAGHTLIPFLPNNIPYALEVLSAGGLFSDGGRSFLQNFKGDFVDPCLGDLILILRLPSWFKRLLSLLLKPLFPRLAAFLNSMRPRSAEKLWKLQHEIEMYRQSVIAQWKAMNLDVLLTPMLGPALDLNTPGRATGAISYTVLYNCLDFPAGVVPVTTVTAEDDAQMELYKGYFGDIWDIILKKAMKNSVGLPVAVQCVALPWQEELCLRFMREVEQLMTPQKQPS
From the text: as §1, §4, §2, §3

IC50 [1] [µM]	IC50 [2] [µM]	IC50 [3] [µM]	Compound
0.027	0.029	0.021	COc1ccc(Sc2oc(-c3ccc(F)cc3)nc2-c2ccc(C(C)(C)O)nc2)c(F)c1 [Ex 65]
0.026	0.148	0.107	CC(C)(O)c1ccc(-c2nc(-c3ccccn3)oc2Sc2ccc(Cl)cn2)cn1 [Ex 51, 2-(5-{5-[(5-chloropyridin-2-yl)thio]-2-pyridin-2-yl-1,3-oxazol-4-yl}pyridin-2-yl)propan-2-ol, trifluoroacetic acid salt]
0.037	0.112	0.074	CC(C)(O)c1ccc(-c2nc(-c3cc(F)c(F)cc3F)oc2Sc2ccc(Cl)cn2)cn1 [Ex 58]
0.017	0.133	0.063	CC(C)(O)c1ccc(-c2nc(-c3ccc(F)cc3)oc2Sc2ccc(Cl)cn2)nn1 [Ex 96, 2-(6-{5-[(5-Chloropyridin-2-yl)sulfanyl]-2-(4-fluorophenyl)-1,3-oxazol-4-yl}pyridazin-3-yl)propan-2-ol]
0.011	0.064	0.024	CCn1cc(-c2nc(-c3ccc(C(C)(C)O)nc3)c(Sc3ccc(Cl)cc3)o2)cn1 [Ex 111, 2-(5-{5-[(4-chlorophenyl)sulfanyl]-2-(1-ethyl-1H-pyrazol-4-yl)-1,3-oxazol-4-yl)pyridin-2-yl}propan-2-ol]
0.027	0.037	0.021	CC(C)(O)c1ccc(-c2nc(-c3ccc(F)c(F)c3)oc2Sc2ccc(Cl)cn2)cn1 [Ex 35]
0.02	0.067	0.04	Cc1ccc(-c2nc(-c3ccc(C(C)(C)O)nc3)c(Sc3ccc(Cl)cn3)o2)cc1 [Ex 59]
0.023	0.071	0.044	CC(C)(O)c1cnc(-c2nc(-c3ccc(F)cc3)oc2Sc2ccc(Cl)cn2)cn1 [Ex 3, 2-{5-[5-[(5-Chloropyridin-2-yl)thio]-2-(4-fluorophenyl)-1,3-oxazol-4-yl]pyrazin-2-yl}propan-2-ol]
0.028	0.047	0.02	CC(C)(O)c1ccc(-c2nc(-c3cncc(Cl)c3)oc2Sc2ccc(Cl)cn2)cn1 [Ex 119, 2-(5-{2-(5-Chloropyridin-3-yl)-5-[(5-chloropyridin-2-yl)sulfanyl]-1,3-oxazol-4-yl}pyridin-2-yl)propan-2-ol]
0.013	0.04	0.015	Cc1cc(F)ccc1-c1nc(-c2ccc(C(C)(C)O)nc2)c(Sc2ccc(Cl)cn2)o1 [Ex 37]
0.012	0.035	0.017	CS(=O)(=O)c1ccc(-c2nc(-c3ccc(F)cc3)oc2Sc2ccc(Cl)cn2)cn1 [Ex 102, 5-Chloro-2-({2-(4-fluorophenyl)-4-[6-(methylsulfonyl)pyridin-3-yl]-1,3-oxazol-5-yl}sulfanyl)pyridine]
0.017	0.039	0.01	CC(C)(O)c1ccc(-c2nc(-c3ccc(F)cc3)oc2Sc2ccc(Cl)cc2)nc1 [Ex 46]
0.011	0.098	0.016	COC(=O)c1cnc(-c2nc(-c3ccc(F)cc3)oc2Sc2ccc(Cl)cn2)nc1 [Ex 124, Methyl 2-{5-[(5-chloropyridin-2-yl)sulfanyl]-2-(4-fluorophenyl)-1,3-oxazol-4-yl}pyrimidine-5-carboxylate]
0.02		0.01	CCOC(=O)c1cc(-c2nc(-c3ccc(F)cc3)oc2Sc2ccc(Cl)cn2)on1 [Ex 97, Ethyl 5-{5-[(5-chloropyridin-2-yl)sulfanyl]-2-(4-fluorophenyl)-1,3-oxazol-4-yl}isoxazole-3-carboxylate]
0.046	1	0.247	CC(C)(O)c1ccc(-c2nc(C3CC3)oc2Sc2ccc(Cl)cn2)cn1 [Ex 90, 2-(5-{5-[(5-Chloropyridin-2-yl)sulfanyl]-2-cyclopropyl-1,3-oxazol-4-yl}pyridin-2-yl)propan-2-ol]
0.015	0.114	0.016	CS(=O)(=O)c1ccc(-c2nc(-c3ccccn3)oc2Sc2ccc(Cl)cc2)cc1 [Ex 56, 2-{5-[(4-chlorophenyl)thio]-4-[4-(methylsulfonyl)phenyl]-1,3-oxazol-2-yl}pyridine]

Reference: patent US20110021531A1, “OXAZOLE DERIVATIVES USEFUL AS INHIBITORS OF FAAH” (priority 2009, published 2011)
